Measurements reported in ChEMBL document CHEMBL5523734, “Backbone-Determined Antiarrhythmic Structure-Activity Relationships for a Mirror Image, Oligomeric Depsipeptide Natural Product” (J Med Chem, 2024).
The source made the active and inactive calls. The calls are words filed in the database; no cut-off is given here. Numbered stars: 1 amine (or outer) side, 2 acyl side, 3 side chain; on linkers, the order of the positions; unused ones are H or OH. Square brackets hold non-standard residues; d marks the D form. Peptide text beside a SMILES is read from it. X1 = CCCCC[C@H](O[*:1])C(=O)[*:2]; NMeAhp(2) = CCCCC[C@H](NC)C(=O)O; Ahp(2) = CCCCC[C@H](N)C(=O)O; dNMeA = CN[C@H](C)C(=O)O

What was measured:
[1] = molecular target: Ryanodine receptor 2 (Mus musculus) (UniProt E9Q401); assay: Inhibition of RyR2-mediated calcium spark frequency in saponin-permeabilized left ventricular myocytes of C57BL/6J mouse at 25 uM incubated for 15 min by Fluo-4 dye based analysis; type: cell-based; conditions: Ventricular myocyte
Ryanodine receptor 2 (Mus musculus), sequence (E9Q401 whole entry): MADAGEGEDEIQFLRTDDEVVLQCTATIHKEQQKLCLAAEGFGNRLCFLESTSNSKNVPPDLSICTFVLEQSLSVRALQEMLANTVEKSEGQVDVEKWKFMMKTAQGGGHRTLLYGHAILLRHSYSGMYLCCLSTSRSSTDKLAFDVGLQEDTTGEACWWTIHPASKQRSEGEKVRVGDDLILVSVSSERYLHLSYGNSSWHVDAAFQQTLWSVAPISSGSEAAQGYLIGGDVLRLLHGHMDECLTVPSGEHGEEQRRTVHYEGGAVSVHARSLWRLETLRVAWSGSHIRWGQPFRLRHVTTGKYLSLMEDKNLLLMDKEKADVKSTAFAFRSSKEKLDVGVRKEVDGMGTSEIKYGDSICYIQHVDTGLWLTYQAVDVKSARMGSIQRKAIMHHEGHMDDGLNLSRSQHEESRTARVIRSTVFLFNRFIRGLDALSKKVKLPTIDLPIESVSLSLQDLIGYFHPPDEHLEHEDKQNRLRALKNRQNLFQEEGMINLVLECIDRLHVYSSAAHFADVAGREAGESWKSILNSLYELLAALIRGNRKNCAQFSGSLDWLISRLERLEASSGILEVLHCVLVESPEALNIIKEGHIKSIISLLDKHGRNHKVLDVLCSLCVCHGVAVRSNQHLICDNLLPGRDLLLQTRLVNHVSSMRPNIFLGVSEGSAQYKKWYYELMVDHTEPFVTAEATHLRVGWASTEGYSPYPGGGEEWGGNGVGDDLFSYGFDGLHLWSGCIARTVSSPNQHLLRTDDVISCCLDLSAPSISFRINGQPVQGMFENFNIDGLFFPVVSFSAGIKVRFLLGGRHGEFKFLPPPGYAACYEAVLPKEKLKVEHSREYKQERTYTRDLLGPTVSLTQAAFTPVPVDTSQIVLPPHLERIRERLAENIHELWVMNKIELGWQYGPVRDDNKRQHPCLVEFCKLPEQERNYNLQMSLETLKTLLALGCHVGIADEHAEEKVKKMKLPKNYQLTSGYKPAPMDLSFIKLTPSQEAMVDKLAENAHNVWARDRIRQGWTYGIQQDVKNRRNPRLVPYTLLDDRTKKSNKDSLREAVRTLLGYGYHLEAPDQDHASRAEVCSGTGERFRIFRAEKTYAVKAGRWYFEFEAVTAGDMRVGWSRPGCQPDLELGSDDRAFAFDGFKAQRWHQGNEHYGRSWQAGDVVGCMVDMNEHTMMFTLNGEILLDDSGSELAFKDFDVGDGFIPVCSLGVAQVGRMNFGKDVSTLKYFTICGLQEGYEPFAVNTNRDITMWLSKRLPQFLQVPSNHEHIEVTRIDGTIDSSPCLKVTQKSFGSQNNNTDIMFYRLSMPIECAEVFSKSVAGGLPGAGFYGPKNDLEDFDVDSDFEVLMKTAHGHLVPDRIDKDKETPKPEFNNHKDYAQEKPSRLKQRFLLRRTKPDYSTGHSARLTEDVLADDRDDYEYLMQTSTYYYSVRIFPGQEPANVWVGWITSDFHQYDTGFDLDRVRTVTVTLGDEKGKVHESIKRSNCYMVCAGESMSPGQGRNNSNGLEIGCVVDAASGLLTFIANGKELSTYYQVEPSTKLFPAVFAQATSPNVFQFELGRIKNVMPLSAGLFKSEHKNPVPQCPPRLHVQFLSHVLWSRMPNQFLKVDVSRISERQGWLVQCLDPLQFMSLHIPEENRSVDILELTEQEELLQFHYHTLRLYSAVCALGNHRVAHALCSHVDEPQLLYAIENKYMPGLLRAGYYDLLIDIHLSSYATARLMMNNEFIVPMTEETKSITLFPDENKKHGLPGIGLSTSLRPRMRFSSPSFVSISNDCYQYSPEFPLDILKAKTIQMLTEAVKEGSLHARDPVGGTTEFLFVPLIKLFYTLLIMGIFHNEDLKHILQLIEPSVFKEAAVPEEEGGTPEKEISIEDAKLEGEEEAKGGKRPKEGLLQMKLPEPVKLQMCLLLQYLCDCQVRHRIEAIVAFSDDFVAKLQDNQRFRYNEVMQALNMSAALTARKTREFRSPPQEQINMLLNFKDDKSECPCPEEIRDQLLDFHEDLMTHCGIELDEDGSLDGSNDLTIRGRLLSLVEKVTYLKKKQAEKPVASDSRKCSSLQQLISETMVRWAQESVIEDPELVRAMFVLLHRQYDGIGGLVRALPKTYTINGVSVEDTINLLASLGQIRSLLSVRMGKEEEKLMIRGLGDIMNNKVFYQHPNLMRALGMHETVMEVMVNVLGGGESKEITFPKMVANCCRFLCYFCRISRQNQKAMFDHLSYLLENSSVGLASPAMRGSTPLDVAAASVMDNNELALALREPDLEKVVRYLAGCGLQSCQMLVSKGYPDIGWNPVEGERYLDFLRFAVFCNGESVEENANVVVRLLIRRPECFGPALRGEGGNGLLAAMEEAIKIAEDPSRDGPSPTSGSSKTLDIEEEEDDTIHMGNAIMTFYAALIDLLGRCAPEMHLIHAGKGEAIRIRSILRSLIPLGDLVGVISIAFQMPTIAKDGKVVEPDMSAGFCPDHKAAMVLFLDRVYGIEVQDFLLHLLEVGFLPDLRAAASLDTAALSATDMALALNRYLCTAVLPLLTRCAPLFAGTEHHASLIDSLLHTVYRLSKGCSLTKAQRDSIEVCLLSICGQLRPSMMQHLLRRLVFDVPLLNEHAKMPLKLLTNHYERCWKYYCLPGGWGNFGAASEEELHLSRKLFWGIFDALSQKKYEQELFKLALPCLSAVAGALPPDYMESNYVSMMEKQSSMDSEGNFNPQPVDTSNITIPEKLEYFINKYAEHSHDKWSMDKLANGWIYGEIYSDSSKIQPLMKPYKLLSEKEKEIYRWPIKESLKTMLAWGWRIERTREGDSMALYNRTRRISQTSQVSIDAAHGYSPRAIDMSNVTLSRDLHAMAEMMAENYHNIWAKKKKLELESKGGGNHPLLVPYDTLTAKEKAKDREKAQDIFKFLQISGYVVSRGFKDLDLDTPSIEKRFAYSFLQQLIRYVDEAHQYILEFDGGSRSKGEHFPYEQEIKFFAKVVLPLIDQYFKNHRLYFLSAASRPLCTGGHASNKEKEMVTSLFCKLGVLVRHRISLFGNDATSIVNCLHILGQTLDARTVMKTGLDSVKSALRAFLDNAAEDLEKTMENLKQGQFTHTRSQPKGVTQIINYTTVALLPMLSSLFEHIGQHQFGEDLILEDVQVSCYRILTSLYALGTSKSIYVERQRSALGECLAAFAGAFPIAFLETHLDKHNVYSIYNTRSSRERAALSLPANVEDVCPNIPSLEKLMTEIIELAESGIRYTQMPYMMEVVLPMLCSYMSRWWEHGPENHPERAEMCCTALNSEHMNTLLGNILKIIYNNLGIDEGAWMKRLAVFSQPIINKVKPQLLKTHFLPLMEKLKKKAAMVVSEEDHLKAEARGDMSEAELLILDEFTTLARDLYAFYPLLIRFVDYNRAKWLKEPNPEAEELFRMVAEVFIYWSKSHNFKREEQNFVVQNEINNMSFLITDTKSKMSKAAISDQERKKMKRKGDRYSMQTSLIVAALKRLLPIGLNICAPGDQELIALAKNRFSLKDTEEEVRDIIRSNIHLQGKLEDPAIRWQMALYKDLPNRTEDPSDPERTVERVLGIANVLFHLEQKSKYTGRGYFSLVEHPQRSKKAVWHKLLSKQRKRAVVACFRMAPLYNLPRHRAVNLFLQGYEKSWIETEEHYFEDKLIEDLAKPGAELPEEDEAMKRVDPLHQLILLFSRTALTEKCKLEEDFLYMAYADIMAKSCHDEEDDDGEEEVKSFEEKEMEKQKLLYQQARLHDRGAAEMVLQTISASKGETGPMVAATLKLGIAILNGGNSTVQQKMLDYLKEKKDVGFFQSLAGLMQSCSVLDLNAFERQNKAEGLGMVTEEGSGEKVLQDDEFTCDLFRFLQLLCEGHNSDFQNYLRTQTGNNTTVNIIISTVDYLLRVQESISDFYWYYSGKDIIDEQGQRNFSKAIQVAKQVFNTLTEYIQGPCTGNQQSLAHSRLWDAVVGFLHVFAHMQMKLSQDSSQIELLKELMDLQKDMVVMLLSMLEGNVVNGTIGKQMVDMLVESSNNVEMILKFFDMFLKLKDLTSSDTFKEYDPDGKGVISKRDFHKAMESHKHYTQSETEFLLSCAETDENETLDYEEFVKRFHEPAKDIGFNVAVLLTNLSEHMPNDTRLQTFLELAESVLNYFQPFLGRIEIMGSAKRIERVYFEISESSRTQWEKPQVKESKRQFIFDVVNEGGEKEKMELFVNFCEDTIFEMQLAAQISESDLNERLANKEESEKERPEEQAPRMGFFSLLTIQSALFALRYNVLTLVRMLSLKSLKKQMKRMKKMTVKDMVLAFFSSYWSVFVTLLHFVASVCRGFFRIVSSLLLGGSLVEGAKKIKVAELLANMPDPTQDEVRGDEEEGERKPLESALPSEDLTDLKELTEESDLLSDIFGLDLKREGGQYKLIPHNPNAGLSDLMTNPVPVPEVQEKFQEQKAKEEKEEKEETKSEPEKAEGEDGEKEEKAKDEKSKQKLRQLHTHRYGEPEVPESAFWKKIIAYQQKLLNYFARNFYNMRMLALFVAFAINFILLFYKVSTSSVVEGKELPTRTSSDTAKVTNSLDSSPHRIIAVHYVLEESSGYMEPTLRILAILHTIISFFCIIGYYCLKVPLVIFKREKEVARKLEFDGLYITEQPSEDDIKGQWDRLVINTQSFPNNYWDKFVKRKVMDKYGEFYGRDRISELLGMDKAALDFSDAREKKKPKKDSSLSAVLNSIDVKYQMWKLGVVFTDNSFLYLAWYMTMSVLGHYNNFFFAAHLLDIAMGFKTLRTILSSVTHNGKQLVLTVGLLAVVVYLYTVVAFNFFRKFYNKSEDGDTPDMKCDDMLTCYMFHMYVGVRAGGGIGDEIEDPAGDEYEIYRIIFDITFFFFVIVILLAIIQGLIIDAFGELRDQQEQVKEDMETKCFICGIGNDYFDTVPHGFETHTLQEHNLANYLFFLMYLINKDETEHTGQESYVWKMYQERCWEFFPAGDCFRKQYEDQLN

[2] = Passive permeability of compound by PAMPA; type: ADME

SMILES	inhibition [1]	permeability [2]
CCCCC[C@@H]1OC(=O)[C@@H](C)N(C)C(=O)[C@H](CCCCC)OC(=O)[C@@H](C)N(C)C(=O)[C@H](CCCCC)N(C)C(=O)[C@@H](C)N(C)C(=O)[C@H](CCCCC)OC(=O)[C@@H](C)N(C)C1=O	Active	Permeable
CCCCC[C@@H]1OC(=O)[C@@H](C)N(C)C(=O)[C@H](CCCCC)N(C)C(=O)[C@@H](C)N(C)C(=O)[C@H](CCCCC)N(C)C(=O)[C@@H](C)N(C)C(=O)[C@H](CCCCC)N(C)C(=O)[C@@H](C)N(C)C1=O	inactive	
CCCCC[C@@H]1OC(=O)[C@@H](C)N(C)C(=O)[C@H](CCCCC)N(C)C(=O)[C@@H](C)N(C)C(=O)[C@H](CCCCC)N(C)C(=O)[C@@H](C)N(C)C(=O)[C@H](CCCCC)OC(=O)[C@@H](C)N(C)C1=O	inactive	
CCCCC[C@@H]1OC(=O)[C@@H](C)N(C)C(=O)[C@H](CCCCC)N(C)C(=O)[C@@H](C)N(C)C(=O)[C@H](CCCCC)OC(=O)[C@@H](C)N(C)C(=O)[C@H](CCCCC)N(C)C(=O)[C@@H](C)N(C)C1=O	inactive	
CCCCC[C@@H]1OC(=O)[C@@H](C)N(C)C(=O)[C@H](CCCCC)OC(=O)[C@@H](C)N(C)C(=O)[C@H](CCCCC)OC(=O)[C@@H](C)N(C)C(=O)[C@H](CCCCC)OC(=O)[C@@H](C)N(C)C1=O	inactive	
CCCCC[C@@H]1OC(=O)[C@@H](C)N(C)C(=O)[C@H](CCCCC)OC(=O)[C@@H](C)N(C)C(=O)[C@H](CCCCC)OC(=O)[C@@H](C)N(C)C(=O)[C@H](CCCCC)OC(=O)[C@@H](C)NC1=O	inactive	
CCCCC[C@@H]1OC(=O)[C@@H](C)N(C)C(=O)[C@H](CCCCC)OC(=O)[C@@H](C)N(C)C(=O)[C@H](CCCCC)OC(=O)[C@@H](C)NC(=O)[C@H](CCCCC)OC(=O)[C@@H](C)NC1=O	inactive	
CCCCC[C@@H]1OC(=O)[C@@H](C)N(C)C(=O)[C@H](CCCCC)OC(=O)[C@@H](C)NC(=O)[C@H](CCCCC)OC(=O)[C@@H](C)N(C)C(=O)[C@H](CCCCC)OC(=O)[C@@H](C)NC1=O	inactive	
CCCCC[C@@H]1OC(=O)[C@@H](C)N(C)C(=O)[C@H](CCCCC)OC(=O)[C@@H](C)NC(=O)[C@H](CCCCC)OC(=O)[C@@H](C)NC(=O)[C@H](CCCCC)OC(=O)[C@@H](C)NC1=O	inactive	
CCCCC[C@@H]1OC(=O)[C@@H](C)NC(=O)[C@H](CCCCC)OC(=O)[C@@H](C)NC(=O)[C@H](CCCCC)OC(=O)[C@@H](C)NC(=O)[C@H](CCCCC)OC(=O)[C@@H](C)NC1=O	inactive	
CCCCC[C@@H]1NC(=O)[C@@H](C)N(C)C(=O)[C@H](CCCCC)NC(=O)[C@@H](C)N(C)C(=O)[C@H](CCCCC)NC(=O)[C@@H](C)N(C)C(=O)[C@H](CCCCC)NC(=O)[C@@H](C)N(C)C1=O (cyclo([Ahp(2)][dNMeA][Ahp(2)][dNMeA][Ahp(2)][dNMeA][Ahp(2)][dNMeA]))	inactive	
CCCCC[C@@H]1NC(=O)[C@@H](C)N(C)C(=O)[C@H](CCCCC)NC(=O)[C@@H](C)N(C)C(=O)[C@H](CCCCC)N(C)C(=O)[C@@H](C)N(C)C(=O)[C@H](CCCCC)NC(=O)[C@@H](C)N(C)C1=O (cyclo([Ahp(2)][dNMeA][Ahp(2)][dNMeA][Ahp(2)][dNMeA][NMeAhp(2)][dNMeA]))	inactive	
CCCCC[C@@H]1NC(=O)[C@@H](C)N(C)C(=O)[C@H](CCCCC)NC(=O)[C@@H](C)N(C)C(=O)[C@H](CCCCC)OC(=O)[C@@H](C)N(C)C(=O)[C@H](CCCCC)NC(=O)[C@@H](C)N(C)C1=O (cyclo([Ahp(2)][dNMeA][Ahp(2)][dNMeA][Ahp(2)][dNMeA][X1][dNMeA]))	inactive	
CCCCC[C@@H]1NC(=O)[C@@H](C)N(C)C(=O)[C@H](CCCCC)N(C)C(=O)[C@@H](C)N(C)C(=O)[C@H](CCCCC)N(C)C(=O)[C@@H](C)N(C)C(=O)[C@H](CCCCC)NC(=O)[C@@H](C)N(C)C1=O (cyclo([Ahp(2)][dNMeA][Ahp(2)][dNMeA][NMeAhp(2)][dNMeA][NMeAhp(2)][dNMeA]))	inactive	
CCCCC[C@@H]1NC(=O)[C@@H](C)N(C)C(=O)[C@H](CCCCC)OC(=O)[C@@H](C)N(C)C(=O)[C@H](CCCCC)OC(=O)[C@@H](C)N(C)C(=O)[C@H](CCCCC)NC(=O)[C@@H](C)N(C)C1=O (cyclo([Ahp(2)][dNMeA][Ahp(2)][dNMeA][X1][dNMeA][X1][dNMeA]))	inactive	
CCCCC[C@@H]1NC(=O)[C@@H](C)N(C)C(=O)[C@H](CCCCC)N(C)C(=O)[C@@H](C)N(C)C(=O)[C@H](CCCCC)NC(=O)[C@@H](C)N(C)C(=O)[C@H](CCCCC)N(C)C(=O)[C@@H](C)N(C)C1=O (cyclo([Ahp(2)][dNMeA][NMeAhp(2)][dNMeA][Ahp(2)][dNMeA][NMeAhp(2)][dNMeA]))	inactive	
CCCCC[C@@H]1NC(=O)[C@@H](C)N(C)C(=O)[C@H](CCCCC)N(C)C(=O)[C@@H](C)N(C)C(=O)[C@H](CCCCC)N(C)C(=O)[C@@H](C)N(C)C(=O)[C@H](CCCCC)N(C)C(=O)[C@@H](C)N(C)C1=O (cyclo([Ahp(2)][dNMeA][NMeAhp(2)][dNMeA][NMeAhp(2)][dNMeA][NMeAhp(2)][dNMeA]))	inactive	
CCCCC[C@@H]1NC(=O)[C@@H](C)N(C)C(=O)[C@H](CCCCC)OC(=O)[C@@H](C)N(C)C(=O)[C@H](CCCCC)NC(=O)[C@@H](C)N(C)C(=O)[C@H](CCCCC)OC(=O)[C@@H](C)N(C)C1=O (cyclo([Ahp(2)][dNMeA][X1][dNMeA][Ahp(2)][dNMeA][X1][dNMeA]))	inactive	
CCCCC[C@@H]1NC(=O)[C@@H](C)N(C)C(=O)[C@H](CCCCC)OC(=O)[C@@H](C)N(C)C(=O)[C@H](CCCCC)OC(=O)[C@@H](C)N(C)C(=O)[C@H](CCCCC)OC(=O)[C@@H](C)N(C)C1=O (cyclo([Ahp(2)][dNMeA][X1][dNMeA][X1][dNMeA][X1][dNMeA]))	Active	Permeable
CCCCC[C@H]1C(=O)N[C@H](C)C(=O)N(C)[C@@H](CCCCC)C(=O)N[C@H](C)C(=O)N(C)[C@@H](CCCCC)C(=O)N[C@H](C)C(=O)N(C)[C@@H](CCCCC)C(=O)N[C@H](C)C(=O)N1C (cyclo([NMeAhp(2)][dA][NMeAhp(2)][dA][NMeAhp(2)][dA][NMeAhp(2)][dA]))	inactive	
CCCCC[C@H]1C(=O)N[C@H](C)C(=O)N(C)[C@@H](CCCCC)C(=O)N[C@H](C)C(=O)N(C)[C@@H](CCCCC)C(=O)N[C@H](C)C(=O)N(C)[C@@H](CCCCC)C(=O)N(C)[C@H](C)C(=O)N1C (cyclo([NMeAhp(2)][dA][NMeAhp(2)][dA][NMeAhp(2)][dA][NMeAhp(2)][dNMeA]))	inactive	
CCCCC[C@H]1C(=O)N[C@H](C)C(=O)N(C)[C@@H](CCCCC)C(=O)N[C@H](C)C(=O)N(C)[C@@H](CCCCC)C(=O)N(C)[C@H](C)C(=O)N(C)[C@@H](CCCCC)C(=O)N(C)[C@H](C)C(=O)N1C (cyclo([NMeAhp(2)][dA][NMeAhp(2)][dA][NMeAhp(2)][dNMeA][NMeAhp(2)][dNMeA]))	inactive	
CCCCC[C@H]1C(=O)N[C@H](C)C(=O)N(C)[C@@H](CCCCC)C(=O)N(C)[C@H](C)C(=O)N(C)[C@@H](CCCCC)C(=O)N[C@H](C)C(=O)N(C)[C@@H](CCCCC)C(=O)N(C)[C@H](C)C(=O)N1C (cyclo([NMeAhp(2)][dA][NMeAhp(2)][dNMeA][NMeAhp(2)][dA][NMeAhp(2)][dNMeA]))	inactive	
CCCCC[C@H]1C(=O)N[C@H](C)C(=O)N(C)[C@@H](CCCCC)C(=O)N(C)[C@H](C)C(=O)N(C)[C@@H](CCCCC)C(=O)N(C)[C@H](C)C(=O)N(C)[C@@H](CCCCC)C(=O)N(C)[C@H](C)C(=O)N1C (cyclo([NMeAhp(2)][dA][NMeAhp(2)][dNMeA][NMeAhp(2)][dNMeA][NMeAhp(2)][dNMeA]))	inactive	
CCCCC[C@H]1C(=O)N(C)[C@H](C)C(=O)N(C)[C@@H](CCCCC)C(=O)N(C)[C@H](C)C(=O)N(C)[C@@H](CCCCC)C(=O)N(C)[C@H](C)C(=O)N(C)[C@@H](CCCCC)C(=O)N(C)[C@H](C)C(=O)N1C (cyclo([NMeAhp(2)][dNMeA][NMeAhp(2)][dNMeA][NMeAhp(2)][dNMeA][NMeAhp(2)][dNMeA]))	inactive	
